Source: paper PMC10447463, “Data-mining unveils structure–property–activity correlation of viral infectivity enhancing self-assembling peptides” (Nature Communications, 2023)
Read-outs that look alike come from different tables or passages of the source.

Legend:
[1] = test system: HIV-1 infection of TZM-bl cells; assay: HIV-1 infectivity enhancement assay, β-galactosidase luminescence; type: cell-based; conditions: for Rel-EFC / Log10 Infection Rel EFC: 1.3 µM peptide; for Rel-EFC: infection relative to EF-C (QCKIKQIINMWQ = 1); for Log10 Infection Rel EFC: log10 of infection relative to EF-C; for Log Infectivity: Log10 infection relative to EF-C, TZM-bl cells, asymmetric std dev errors; for Log10 Infection Rel EF-C: HIV-1 infection of TZM-bl cells; for Abs. Inf.: absolute infection signal, HIV-1 on TZM-bl cells, β-galactosidase luminescence; for Log10 Inf. rel. to EF-C: log10 of HIV-1 infection of TZM-bl cells relative to EF-C (EF-C = 0)
[2] = type: physicochemical; conditions: for ThT Cat. / ThT-Fluorescence (categorical): ThT-active if fluorescence at least twice the control
Summary of the method: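 Preformed peptide fibrils (1 mg/mL) mixed with 50 µM ThT in PBS, 15 min at RT, fluorescence ex 440/em 488 nm versus PBS blank, triplicates. Zeta potential: peptides at 1 mg/mL in PBS pH 7.4, aged 1 d at RT, diluted in 1 mM KCl, Smoluchowski from electrophoretic mobility.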

[3] = β-sheet content by ATR-FT-IR; type: physicochemical; conditions: Fig. S7 panel A; β-sheet content by ATR-FT-IR
Summary of the method: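 Fluorescamine labelling (20 min RT, λex 365/λem 470 nm) of 3 kDa-MWCO filtrate and unfiltered fibril samples, redissolved in DMSO, gave conversion rate as 100 minus the percentage filtrate/original intensity, in triplicate. Secondary structure was quantified by ATR FT-IR on lyophilized 1 mg/mL fibrils, 64 scans.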

[4] = Fig. S7 panel A (plotted against β-sheet content)
[5] = Log10 of infection rate relative to EF-C, Figure 3A source data
[6] = infection rate relative to EF-C, log10, data of Figure 2D
[7] = infection rate relative to EF-C, log10, source data of Figure 2C
[8] = Fig. S7 panel B (plotted against CR), rounded to two decimals
[9] = ThT fluorescence category, 1 if Rel. ThT >2

Substance	Rel-EFC [1]	Log10 Infection Rel EFC [1]	Log Infectivity [1, 4]	Log10 Infection Rel EF-C [1, 5]	Log10 Infection Rel EF-C [1, 6]	Log10 Infection Rel EF-C [1, 7]	Abs. Inf. [1]	Log10 Inf. rel. to EF-C [1]	Tht category (> 2 to blank = +) ([2]; Fig S10 panel D)	Tht category (> 2 to blank = +) ([2]; FigS12 panel A)	ThT Cat, ([2]; FigS12 panel B)	ThT Cat, ([2]; ThT category, 1 if Rel. ThT >2)	ThT Cat. ([2]; ThT category, 1 if Rel. ThT >2)	ThT Cat. / ThT-Fluorescence (categorical) [2]	b -sheet / % [3] [%]	Log Infectivity [1, 8]	ThT Cat. ([2]; Fig S10 panel E)	ThT Cat. [2, 9]
KIRGKFEKED	0,06	-1,24	-1.2355	-1.24	-1.2355	-1.2355	643.3	-1.2355	1 (ThT. Cat is 1, if Rel. ThT >2)	1 (ThT. Cat is 1, if Rel. ThT >2)	1 (ThT. Cat is 1, if Rel. ThT >2)	1 (ThT. Cat is 1, if Rel. ThT >2)	1 (ThT. Cat is 1, if Rel. ThT >2)	1 (ThT. Cat is 1, if Rel. ThT >2)	28.67	–	–	–
KKFQKKFQ	0,03	-1,54	-1.545	-1.54	-1.545	-1.545	423.3	-1.545	0 (ThT-inactive (N-Fold <2))	0 (ThT-inactive (N-Fold <2))	0 (ThT-inactive (N-Fold <2))	0 (ThT-inactive (N-Fold <2))	0 (ThT-inactive (N-Fold <2))	0 (ThT-inactive (N-Fold <2))	40.421	–	–	–
KNDKND	0,01	-1,98	-1.978	-1.98	-1.978	-1.978	230	-1.978	0 (ThT-inactive (N-Fold <2))	0 (ThT-inactive (N-Fold <2))	0 (ThT-inactive (N-Fold <2))	0 (ThT-inactive (N-Fold <2))	0 (ThT-inactive (N-Fold <2))	0 (ThT-inactive (N-Fold <2))	43.2531	–	–	–
KNERIKNERI	0,01	-1,89	-1.888	-1.89	-1.888	-1.888	143.3	-1.888	0 (ThT-inactive (N-Fold <2))	0 (ThT-inactive (N-Fold <2))	0 (ThT-inactive (N-Fold <2))	0 (ThT-inactive (N-Fold <2))	0 (ThT-inactive (N-Fold <2))	0 (ThT-inactive (N-Fold <2))	37.95	-1.89	0 (ThT-inactive (N-Fold <2))	–
KVKGVGK	0,03	-1,59	-1.587	-1.59	-1.587	-1.587	286.7	-1.587	0 (ThT-inactive (N-Fold <2))	0 (ThT-inactive (N-Fold <2))	0 (ThT-inactive (N-Fold <2))	0 (ThT-inactive (N-Fold <2))	0 (ThT-inactive (N-Fold <2))	0 (ThT-inactive (N-Fold <2))	8.763	–	–	–
KVKVKVQV	0,02	-1,76	-1.763	-1.76	-1.763	-1.763	466.7	-1.763	1 (ThT. Cat is 1, if Rel. ThT >2)	1 (ThT. Cat is 1, if Rel. ThT >2)	1 (ThT. Cat is 1, if Rel. ThT >2)	1 (ThT. Cat is 1, if Rel. ThT >2)	1 (ThT. Cat is 1, if Rel. ThT >2)	1 (ThT. Cat is 1, if Rel. ThT >2)	43.06	–	–	–
KWKWQW	0,01	-1,84	-1.838	-1.84	-1.838	-1.838	–	–	0 (ThT-inactive (N-Fold <2))	0 (ThT-inactive (N-Fold <2))	0 (ThT-inactive (N-Fold <2))	0 (ThT-inactive (N-Fold <2))	–	0 (ThT-inactive (N-Fold <2))	30.47	–	–	0 (ThT-inactive (N-Fold <2))
KYKGAIIGNIK	0	-2,51	-2.508	-2.51	-2.508	-2.508	80	-2.508	0 (ThT-inactive (N-Fold <2))	0 (ThT-inactive (N-Fold <2))	0 (ThT-inactive (N-Fold <2))	0 (ThT-inactive (N-Fold <2))	0 (ThT-inactive (N-Fold <2))	0 (ThT-inactive (N-Fold <2))	44.63	–	–	–
KYKYQY	0,01	-1,99	-1.9887	-1.99	-1.9887	-1.9887	–	–	1 (ThT. Cat is 1, if Rel. ThT >2)	1 (ThT. Cat is 1, if Rel. ThT >2)	1 (ThT. Cat is 1, if Rel. ThT >2)	1 (ThT. Cat is 1, if Rel. ThT >2)	–	1 (ThT. Cat is 1, if Rel. ThT >2)	0	–	–	1 (ThT. Cat is 1, if Rel. ThT >2)
MDQMDQMDQMDQMDQ	0	-2,37	-2.37	-2.37	-2.37	-2.37	63.33	-2.37	0 (ThT-inactive (N-Fold <2))	0 (ThT-inactive (N-Fold <2))	0 (ThT-inactive (N-Fold <2))	0 (ThT-inactive (N-Fold <2))	0 (ThT-inactive (N-Fold <2))	0 (ThT-inactive (N-Fold <2))	46.09	-2.37	0 (ThT-inactive (N-Fold <2))	–
MKFKFQF	0,06	-1,2	-1.196	-1.2	-1.196	-1.196	1427	-1.196	0 (ThT-inactive (N-Fold <2))	0 (ThT-inactive (N-Fold <2))	0 (ThT-inactive (N-Fold <2))	0 (ThT-inactive (N-Fold <2))	0 (ThT-inactive (N-Fold <2))	0 (ThT-inactive (N-Fold <2))	21.97	-1.2	0 (ThT-inactive (N-Fold <2))	–
MKFM	0,02	-1,76	-1.756	-1.76	-1.756	-1.756	383.3	-1.756	0 (ThT-inactive (N-Fold <2))	0 (ThT-inactive (N-Fold <2))	0 (ThT-inactive (N-Fold <2))	0 (ThT-inactive (N-Fold <2))	0 (ThT-inactive (N-Fold <2))	0 (ThT-inactive (N-Fold <2))	34.63	–	–	–
NMWQKAKAQA	0,04	-1,38	-1.376	-1.38	-1.376	-1.376	1137	-1.376	1 (ThT. Cat is 1, if Rel. ThT >2)	1 (ThT. Cat is 1, if Rel. ThT >2)	1 (ThT. Cat is 1, if Rel. ThT >2)	1 (ThT. Cat is 1, if Rel. ThT >2)	1 (ThT. Cat is 1, if Rel. ThT >2)	1 (ThT. Cat is 1, if Rel. ThT >2)	37.34	–	–	–
